# Laboratory results from ChEMBL document CHEMBL1143183, “New polyphenols active on beta-amyloid aggregation” (Bioorg Med Chem Lett, 2008).
# Assays:
# [1] = Inhibition of beta amyloid 25-35 fibril formation at 10 uM
# [2] = Inhibition of beta amyloid 25-35 fibril formation
Compound,inhibition [1] [%],EC50 [2] [µM]
COc1cc(/C=C/c2ccc(O)cc2)cc(OC)c1,35,–
COc1cccc(OC)c1C(=O)OCc1cc(O)ccc1O[C@@H]1O[C@H](CO)[C@@H](O)[C@H](O)[C@H]1O,28,–
O=C(O)/C=C/c1ccc(O)c(O)c1,15,–
O=C(O)/C=C/c1ccc(O)cc1,17,–
O=C(O)c1ccc(O)cc1,29,–
O=C(O[C@@H]1Cc2c(O)cc(O)cc2O[C@@H]1c1cc(O)c(O)c(O)c1)c1cc(O)c(O)c(O)c1,13,–
O=C(O[C@@H]1Cc2c(O)cc(O)cc2O[C@@H]1c1ccc(O)c(O)c1)c1cc(O)c(O)c(O)c1,13,–
OC[C@H]1O[C@@H](Oc2cc3c(O)cc(O)cc3[o+]c2-c2ccc(O)c(O)c2)[C@H](O)[C@@H](O)[C@@H]1O,31,–
Oc1cc(O)c2c(c1)O[C@H](c1cc(O)c(O)c(O)c1)[C@H](O)C2,18,–
Oc1cc(O)c2cc(O)c(-c3cc(O)c(O)c(O)c3)[o+]c2c1,26,–
Oc1cc(O)c2cc(O)c(-c3ccc(O)c(O)c3)[o+]c2c1,35,–
COc1cccc(O)c1C(=O)OCc1cc(O)ccc1O[C@@H]1O[C@H](CO)[C@@H](O)[C@H](O)[C@H]1O [CURCULIGOSIDE B],53,8.5
COc1ccc(O)c(OC)c1C(=O)OCc1ccccc1O[C@@H]1O[C@H](CO)[C@@H](O)[C@H](O)[C@H]1O [CURCULIGOSIDE D],49,9.5
COc1cc(/C=C/C(=O)CC(=O)/C=C/c2ccc(O)c(OC)c2)ccc1O [CURCUMIN],45,10
COc1cc(-c2[o+]c3cc(O)cc(O)c3cc2O)cc(OC)c1O [MALVIDIN],46,10
COc1cc(-c2[o+]c3cc(O)cc(O)c3cc2O[C@@H]2O[C@H](CO)[C@@H](O)[C@H](O)[C@H]2O)cc(OC)c1O [OENIN],44,10
Oc1ccc(/C=C/c2cc(O)cc(O)c2)cc1 [RESVERATROL],63,6
